{
  "source": "patent US20030215409A1",
  "about": "“Process for the treatment of human keratinous fibers” (L'OREAL, priority 2002, published 2003)",
  "origin": "cited, not measured here",
  "tested_on": "hair",
  "details": "hair densification, current compositions",
  "data": [
    {"compound": "Nc1ccnc(N)[n+]1[O-]", "note": "[aminexil]", "values": [
      {"measurement": "time after which the user begins to have a benefit", "result": 1.5, "unit": "months"}
    ]}
  ]
}
